According to US7384933B2, “Derivatives of 2-hydroxytetrahydrofuran and their use as medicaments” (priority 2003, dated 2008):

Row | SMILES | melting point [°C]
1 | COC1OCC[C@@H]1NC(=O)[C@H](CC(C)C)NC(=O)CNC(=O)COc1ccc2c(c1)Nc1ccccc1S2 (stereo partly drawn) | 181 to 182
2 | COC1OCC[C@@H]1NC(=O)[C@H](CC(C)C)NC(=O)[C@H](C)NC(=O)COc1ccc2c(c1)Nc1ccccc1S2 (stereo partly drawn) | 195 to 196
3 | COC1OCC[C@@H]1NC(=O)[C@H](CC(C)C)NC(=O)[C@@H](NC(=O)COc1ccc2c(c1)Nc1ccccc1S2)C(C)C (stereo partly drawn) | 240 to 241
4 | COC1OCC[C@@H]1NC(=O)[C@H](CC(C)C)NC(=O)CN(C)C(=O)COc1ccc2c(c1)Nc1ccccc1S2 (stereo partly drawn) | 92 to 95
5 | COC1OCC[C@@H]1NC(=O)[C@H](CC(C)C)NC(=O)[C@H](NC(=O)COc1ccc2c(c1)Nc1ccccc1S2)C(C)C (stereo partly drawn) | 204 to 206
6 | COC1OCC[C@@H]1NC(=O)[C@H](CC(C)C)NC(=O)[C@@H](NC(=O)COc1ccc2c(c1)Nc1ccccc1S2)C(C)(C)C (stereo partly drawn) | 152 to 153
7 | CC[C@H](NC(=O)COc1ccc2c(c1)Nc1ccccc1S2)C(=O)N[C@@H](CC(C)C)C(=O)N[C@H]1CCOC1OC (stereo partly drawn) | 164 to 165
8 | CCC[C@H](NC(=O)COc1ccc2c(c1)Nc1ccccc1S2)C(=O)N[C@@H](CC(C)C)C(=O)N[C@H]1CCOC1OC (stereo partly drawn) | 225 to 226
9 | COC1OCC[C@@H]1NC(=O)[C@H](CC(C)C)NC(=O)[C@@H](NC(=O)COc1ccc2c(c1)Nc1ccccc1S2)[C@@H](C)O (stereo partly drawn) | 92 to 93
10 | COC1OCC[C@@H]1N(C(=O)[C@@H](NC(=O)COc1ccc2c(c1)Nc1ccccc1S2)c1ccccc1)C(=O)[C@@H](N)CC(C)C (stereo partly drawn) | 215 to 217
11 | COC1OCC[C@@H]1NC(=O)[C@H](CC(C)C)NC(=O)C(C)(C)NC(=O)COc1ccc2c(c1)Nc1ccccc1S2 (stereo partly drawn) | 119 to 120
12 | COC1OCC[C@@H]1NC(=O)[C@H](CC(C)C)NC(=O)[C@H](CC(C)C)NC(=O)c1ccc2c(c1)Nc1ccccc1S2 (stereo partly drawn) | 180 to 180.5
13 | COC1OCC[C@@H]1NC(=O)[C@H](CC(C)C)NC(=O)[C@H](CCCCNC(=O)OCc1ccccc1)NC(=O)c1ccc2c(c1)Nc1ccccc1S2 (stereo partly drawn) | 102 to 103
14 | CC(C)CN(CC(=O)N[C@H]1CCOC1O)C(=O)CNC(=O)COc1ccc2c(c1)Nc1ccccc1S2 (stereo partly drawn) | 122 to 124
15 | COC1OCC[C@@H]1NC(=O)[C@H](CC(C)C)NC(=O)[C@@H]1CCCN1C(=O)c1ccc2c(c1)Nc1ccccc1S2 (stereo partly drawn) | 243 to 243.5
16 | CC(C)C[C@H](NC(=O)CNC(=O)c1ccc2c(c1)Nc1ccccc1S2)C(=O)N[C@H]1CCOC1O (stereo partly drawn) [Example 7, N-(10H-phenothiazin-2-ylcarbonyl)glycyl-N^1-[(3S)-2-hydroxytetrahydrofuran-3-yl]-L-leucinamide] | 126 to 126.5
17 | CC(C)C[C@H](NC(=O)c1ccc2c(c1)Nc1ccccc1S2)C(=O)N[C@@H](CC(C)C)C(=O)N[C@H]1CCOC1O (stereo partly drawn) [Example 8, N-(10H-phenothiazin-2-ylcarbonyl)leucyl-N^1-[(3S)-2-hydroxytetrahydrofuran-3-yl]-L-leucinamide] | 144 to 144.5
18 | CC(C)C[C@H](NC(=O)[C@H](CCCCNC(=O)OCc1ccccc1)NC(=O)c1ccc2c(c1)Nc1ccccc1S2)C(=O)N[C@H]1CCOC1O (stereo partly drawn) [Example 9, N 6-[(benzyloxy)carbonyl]-N^2-(10H-phenothiazin-2-ylcarbonyl)lysyl-N^1-[(3S)-2-hydroxytetrahydrofuran-3-yl]-L-leucinamide] | 109 to 109.5
19 | CC(C)C[C@H](NC(=O)[C@@H]1CCCN1C(=O)c1ccc2c(c1)Nc1ccccc1S2)C(=O)N[C@H]1CCOC1O (stereo partly drawn) [Example 10, 1-(10H-phenothiazin-2-ylcarbonyl)-L-prolyl-N^1-[(3S)-2-hydroxytetrahydrofuran-3-yl]-L-leucinamide] | 144.5 to 145
20 | CC(C)C[C@H](NC(=O)Cc1ccc2c(c1)Nc1ccccc1S2)C(=O)N[C@@H](CC(C)C)C(=O)N[C@H]1CCOC1O (stereo partly drawn) [Example 16, N-(10H-phenothiazin-2-ylacetyl)-L-leucyl-N^1-[(3S)-2-hydroxytetrahydrofuran-3-yl]-L-leucinamide] | 168 to 168.5

Row | SMILES | melting point [°C]
21 | CC(C)C[C@H](NC(=O)[C@H](COC(C)(C)C)NC(=O)Cc1ccc2c(c1)Nc1ccccc1S2)C(=O)N[C@H]1CCOC1O (stereo partly drawn) [Example 17, O-(tert-butyl)-N-(10H-phenothiazin-2-ylacetyl)-L-seryl-N^1-[(3S)-2-hydroxytetrahydrofuran-3-yl]-L-leucinamide] | 135 to 136
22 | C[C@H](NC(=O)Cc1ccc2c(c1)Nc1ccccc1S2)C(=O)N[C@@H](CC1CCCCC1)C(=O)N[C@H]1CCOC1O (stereo partly drawn) [Example 18, N-(10H-phenothiazin-2-ylacetyl)-L-alanyl-3-cyclohexyl-N^1-[(3S)-2-hydroxytetrahydrofuran-3-yl]-L-alaninamide] | 215 to 217
23 | CC(C)C[C@H](NC(=O)COc1ccc2c(c1)Nc1ccccc1S2)C(=O)N[C@@H](CC(C)C)C(=O)N[C@H]1CCOC1O (stereo partly drawn) [Example 40, N-[(10H-phenothiazin-2-yloxy)acetyl]-L-leucyl-N^1-[(3S)-2-hydroxytetrahydrofuran-3-yl]-L-leucinamide] | 141.5 to 142
24 | CC(C)C[C@H](NC(=O)CNC(=O)COc1ccc2c(c1)Nc1ccccc1S2)C(=O)N[C@H]1CCOC1O (stereo partly drawn) [Example 41, N-[(10H-phenothiazin-2-yloxy)acetyl]-glycyl-N^1-[(3S)-2-hydroxytetrahydrofuran-3-yl]-L-leucinamide] | 184 to 186
25 | CC(C)C[C@H](NC(=O)[C@H](C)NC(=O)COc1ccc2c(c1)Nc1ccccc1S2)C(=O)N[C@H]1CCOC1O (stereo partly drawn) [Example 42, N-[(10H-phenothiazin-2-yloxy)acetyl]-L-alanyl-N^1-[(3S)-2-hydroxytetrahydrofuran-3-yl]-L-leucinamide] | 144 to 146
26 | CC(C)C[C@H](NC(=O)[C@@H](NC(=O)COc1ccc2c(c1)Nc1ccccc1S2)C(C)C)C(=O)N[C@H]1CCOC1O (stereo partly drawn) [Example 43, N-[(10H-phenothiazin-2-yloxy)acetyl]-L-valyl-N^1-[(3S)-2-hydroxytetrahydrofuran-3-yl]-L-leucinamide] | 205 to 206
27 | CC(C)C[C@H](NC(=O)CCNC(=O)COc1ccc2c(c1)Nc1ccccc1S2)C(=O)N[C@H]1CCOC1O (stereo partly drawn) [Example 44, N-[(10H-phenothiazin-2-yloxy)acetyl]-β-alanyl-N^1-[(3S)-2-hydroxytetrahydrofuran-3-yl]-L-leucinamide] | 161 to 162
28 | CC(C)C[C@H](NC(=O)CN(C)C(=O)COc1ccc2c(c1)Nc1ccccc1S2)C(=O)N[C@H]1CCOC1O (stereo partly drawn) [Example 45, N-methyl-N-[(10H-phenothiazin-2-yloxy)acetyl]glycyl-N^1-[(3S)-2-hydroxytetrahydrofuran-3-yl]-L-leucinamide] | 137 to 138
29 | CC(C)C[C@H](NC(=O)[C@H](NC(=O)COc1ccc2c(c1)Nc1ccccc1S2)C(C)C)C(=O)N[C@H]1CCOC1O (stereo partly drawn) [Example 46, N-[(10H-phenothiazin-2-yloxy)acetyl]-D-valyl-N^1-[(3S)-2-hydroxytetrahydrofuran-3-yl]-L-leucinamide] | 145 to 146
30 | CC(C)C[C@H](NC(=O)[C@@H](NC(=O)COc1ccc2c(c1)Nc1ccccc1S2)C(C)(C)C)C(=O)N[C@H]1CCOC1O (stereo partly drawn) [Example 47, 3-methyl-N-[(10H-phenothiazin-2-yloxy)acetyl]-L-valyl-N^1-[(3S)-2-hydroxytetrahydrofuran-3-yl]-L-leucinamide] | 157 to 159
31 | CC[C@H](NC(=O)COc1ccc2c(c1)Nc1ccccc1S2)C(=O)N(C(=O)[C@@H](N)CC(C)C)[C@H]1CCOC1O (stereo partly drawn) [Example 48, N^1-[(3S)-2-hydroxytetrahydrofuran-3-yl]-N^1-((2S)-2-{[(10H-phenothiazin-2-yloxy)acetyl]amino}butanoyl)-L-leucinamide] | 160 to 161
32 | CCC[C@H](NC(=O)COc1ccc2c(c1)Nc1ccccc1S2)C(=O)N[C@@H](CC(C)C)C(=O)N[C@H]1CCOC1O (stereo partly drawn) [Example 49, N-[(10H-phenothiazin-2-yloxy)acetyl]-L-norvalyl-N^1-[(3S)-2-hydroxytetrahydrofuran-3-yl]-L-leucinamide] | 195 to 196
33 | CC(C)C[C@H](NC(=O)[C@H](CO)NC(=O)COc1ccc2c(c1)Nc1ccccc1S2)C(=O)N[C@H]1CCOC1O (stereo partly drawn) [Example 50, N-[(10H-phenothiazin-2-yloxy)acetyl]-L-seryl-N^1-[(3S)-2-hydroxytetrahydrofuran-3-yl]-L-leucinamide] | 128 to 130
34 | CC(C)C[C@H](NC(=O)[C@@H](NC(=O)COc1ccc2c(c1)Nc1ccccc1S2)[C@@H](C)O)C(=O)N[C@H]1CCOC1O (stereo partly drawn) [Example 51, N-[(10H-phenothiazin-2-yloxy)acetyl]-L-threonyl-N^1-[(3S)-2-hydroxytetrahydrofuran-3-yl]-L-leucinamide] | 195 to 196
35 | CC(C)C[C@H](NC(=O)[C@@H](NC(=O)COc1ccc2c(c1)Nc1ccccc1S2)c1ccccc1)C(=O)N[C@H]1CCOC1O (stereo partly drawn) [Example 52, N^1-[(3S)-2-hydroxytetrahydrofuran-3-yl]-N^2-((2S)-2-{[(10H-phenothiazin-2-yloxy)acetyl]amino}-2-phenylethanoyl)-L-leucinamide] | 137 to 138
36 | C=CC(NC(=O)COc1ccc2c(c1)Nc1ccccc1S2)C(=O)NC(CC(C)C)C(=O)NC1CCOC1O [Example 53, N^1-[(3S)-2-hydroxytetrahydrofuran-3-yl]-N^2-((2S)-2-{[(10H-phenothiazin-2-yloxy)-acetyl]amino}goal-3-enoyl)-L-leucinamide] | 159 to 161
37 | CC(C)C[C@H](NC(=O)C(C)(C)NC(=O)COc1ccc2c(c1)Nc1ccccc1S2)C(=O)N[C@H]1CCOC1O (stereo partly drawn) [Example 54] | 138 to 140
38 | CC(C)[C@H](NC(=O)CNC(=O)COc1ccc2c(c1)Nc1ccccc1S2)C(=O)N[C@H]1CCOC1O (stereo partly drawn) [Example 55, N-[(10H-phenothiazin-2-yloxy)acetyl]glycyl-N^1-[(3S)-2-hydroxytetrahydrofuran-3-yl]-L-valinamide] | 200 to 201
39 | O=C(COc1ccc2c(c1)Nc1ccccc1S2)NCC(=O)N[C@@H](CC1CCCCC1)C(=O)N[C@H]1CCOC1O (stereo partly drawn) [Example 56, N-[(10H-phenothiazin-2-yloxy)acetyl]glycyl-3-cyclohexyl-N^1-[(3S)-2-hydroxytetrahydrofuran-3-yl]-L-alaninamide] | 212 to 215
